In ChEMBL document CHEMBL1201862, “PubChem BioAssay data set” (2004):
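Tested at 5 concentrations; 48 h exposure; 96-well plates; endpoints linearly interpolated, else capped at highest concentration. The concentration for 50% growth inhibition is given as GI50.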 Active and inactive are the calls of the source. Cut-off read from the data, not from the text of the source: active = GI50 up to about 1.1 µM and inactive = higher.

What was measured:
Experiment in all cases: DTP human tumour cell line panel, 48 h
[1] = test system: A549
[2] = test system: ACHN
[3] = test system: CCRF-CEM
[4] = test system: HOP-92
[5] = test system: LOX IMVI
[6] = test system: NCI-H460
[7] = test system: OVCAR-3
[8] = test system: OVCAR-8
[9] = test system: SK-MEL-5
[10] = test system: SK-OV-3
[11] = test system: SNB-75
[12] = test system: UACC-257
[13] = test system: UACC-62
[14] = test system: Malme-3M
[15] = test system: SR

With `NCC(=O)OCN1C(=O)C2C3C=CC(C2C1=O)C1C2C(=O)N(COC(=O)CN)C(=O)C2C31` (configuration not stated) the GI50 [1] was 25.5 µM (inactive), the GI50 [2] was 24.5 µM (inactive) and the GI50 [3] was 21 µM (inactive). For the same compound, the GI50 [4] was > 100 µM (inactive), the GI50 [5] was 19.1 µM (inactive) and the GI50 [6] was 17.3 µM (inactive). The GI50 [7] was 35 µM (inactive), the GI50 [8] was 20.3 µM (inactive) and the GI50 [9] was 17.7 µM (inactive). The GI50 [10] was 60.8 µM (inactive), the GI50 [11] was 32.3 µM (inactive) and the GI50 [12] was 31.8 µM (inactive). The GI50 [13] was 24.2 µM (inactive).

With `C=CCNC(=O)N(CCCCC(NC(C)=O)C(=O)NCc1ccccc1)Cc1ccccc1` (configuration not stated) the GI50 [1] was > 100 µM (inactive), the GI50 [2] was > 100 µM (inactive) and the GI50 [3] was > 100 µM (inactive). The GI50 [4] was 65.8 µM (inactive), the GI50 [5] was > 100 µM (inactive) and the GI50 [14] was > 100 µM (inactive). The GI50 [6] was > 100 µM (inactive), the GI50 [7] was > 100 µM (inactive) and the GI50 [8] was > 100 µM (inactive). The GI50 [9] was > 100 µM (inactive), the GI50 [10] was > 100 µM (inactive) and the GI50 [11] was > 100 µM (inactive). The GI50 [12] was > 100 µM (inactive) and the GI50 [13] was > 100 µM (inactive).

With `COc1ccc(NC(=O)C(C)Oc2ccc(OCC3CCCCC3)cc2)cc1` (configuration not stated) the GI50 [1] was 54.1 µM (inactive), the GI50 [2] was 44.5 µM (inactive) and the GI50 [3] was 71.1 µM (inactive). The GI50 [5] was 30.7 µM (inactive), the GI50 [14] was 34.2 µM (inactive) and the GI50 [6] was 45.8 µM (inactive). For the same compound, the GI50 [7] was 62.5 µM (inactive), the GI50 [8] was > 100 µM (inactive) and the GI50 [9] was 34.1 µM (inactive). The GI50 [10] was > 100 µM (inactive), the GI50 [11] was 54 µM (inactive) and the GI50 [12] was 36.6 µM (inactive). For the same compound, the GI50 [13] was > 100 µM (inactive).

`CC1(C)CC(C)(C)CC(O)(C2(O)CC(C)(C)CC(C)(C)C2)C1` was tested, and the GI50 [1] was > 100 µM (inactive), the GI50 [2] was > 100 µM (inactive) and the GI50 [3] was > 100 µM (inactive). For the same compound, the GI50 [5] was > 100 µM (inactive), the GI50 [14] was > 100 µM (inactive) and the GI50 [6] was > 100 µM (inactive). The GI50 [7] was > 100 µM (inactive), the GI50 [8] was > 100 µM (inactive) and the GI50 [9] was > 100 µM (inactive). For the same compound, the GI50 [10] was > 100 µM (inactive), the GI50 [15] was > 100 µM (inactive) and the GI50 [12] was > 100 µM (inactive). The GI50 [13] was > 100 µM (inactive).

In the case of `NC(=S)N/N=C(/CC(=O)c1ccccc1)C(=O)Nc1ccc(Cl)c(Cl)c1`, the GI50 [1] is reported as > 100 µM (inactive), the GI50 [2] is reported as 75.2 µM (inactive) and the GI50 [3] is reported as 28.6 µM (inactive). The GI50 [4] was 40 µM (inactive), the GI50 [5] was 74.3 µM (inactive) and the GI50 [14] was > 100 µM (inactive). For the same compound, the GI50 [6] was 46.7 µM (inactive), the GI50 [7] was 37.3 µM (inactive) and the GI50 [8] was 47.6 µM (inactive). For the same compound, the GI50 [9] was 41.7 µM (inactive), the GI50 [10] was > 100 µM (inactive) and the GI50 [11] was > 100 µM (inactive). For the same compound, the GI50 [12] was > 100 µM (inactive) and the GI50 [13] was 27.4 µM (inactive).

`Cc1ccc(NC(=O)C(=O)C(C(=O)c2ccc3ccccc3c2)C2OC(=O)c3ccccc32)cc1C` (configuration not stated) was tested, and the GI50 [1] was 16.5 µM (inactive), the GI50 [2] was 32 µM (inactive) and the GI50 [3] was 5.2 µM (inactive). The GI50 [4] was 14 µM (inactive), the GI50 [5] was 14.4 µM (inactive) and the GI50 [14] was 12.7 µM (inactive). The GI50 [6] was 5.74 µM (inactive), the GI50 [7] was 10.9 µM (inactive) and the GI50 [8] was 12.8 µM (inactive). For the same compound, the GI50 [9] was 15.2 µM (inactive), the GI50 [10] was 26.9 µM (inactive) and the GI50 [11] was 2.98 µM (inactive). For the same compound, the GI50 [12] was 10 µM (inactive) and the GI50 [13] was 12.4 µM (inactive).

In the case of `CN(C)c1ccc(/C=C(\NC(=O)c2ccccc2)c2nc3ccc4c(c3[nH]2)C(=O)c2ccccc2C4=O)cc1`, the GI50 [1] is reported as 20 µM (inactive), the GI50 [3] is reported as 0.966 µM (active) and the GI50 [4] is reported as 12.8 µM (inactive). For the same compound, the GI50 [5] was 20.2 µM (inactive), the GI50 [14] was > 100 µM (inactive) and the GI50 [6] was 29.1 µM (inactive). For the same compound, the GI50 [7] was 32.2 µM (inactive), the GI50 [8] was 37.4 µM (inactive) and the GI50 [9] was 34.3 µM (inactive). The GI50 [10] was 39 µM (inactive), the GI50 [11] was 11 µM (inactive) and the GI50 [12] was > 100 µM (inactive). The GI50 [13] was 35.8 µM (inactive).

In the case of `COc1ccc(OC)c2[nH]c(Sc3c([N+](=O)[O-])ncn3C)nc12`, the GI50 [1] is reported as 33.7 µM (inactive), the GI50 [2] is reported as 27.8 µM (inactive) and the GI50 [4] is reported as 16.9 µM (inactive). The GI50 [5] was 79.1 µM (inactive), the GI50 [14] was 13.5 µM (inactive) and the GI50 [6] was 38.1 µM (inactive). The GI50 [7] was 16.8 µM (inactive), the GI50 [8] was 17.6 µM (inactive) and the GI50 [9] was 17.6 µM (inactive). The GI50 [10] was 35.2 µM (inactive), the GI50 [11] was 30.8 µM (inactive) and the GI50 [12] was 15.3 µM (inactive). The GI50 [13] was 18.5 µM (inactive).
